Measured values published in ChEMBL document CHEMBL5584357, “Corannulene Amino Acid-Derived Water-Soluble Amphiphilic Buckybowls as Broad-Spectrum Membrane Targeting Antibacterial Agents” (J Med Chem, 2024).
Converted amounts (≈) assume the structure as drawn. The source made the active and inactive calls. The rule behind the calls is not given here. Peptide text beside a SMILES is read from it.

Key:
Escherichia coli [1] = test: Bactericidal activity against Escherichia coli ATCC 25922 incubated for 16 hrs; format: functional
Escherichia coli [2] = test: Induction of cell membrane damage in Escherichia coli ATCC 25922 assessed as membrane blebbing at 5 times MIC incubated for 60 mins by SEM analysis; format: functional, organism-based
Staphylococcus aureus [3] = test: Induction of cell membrane damage in Staphylococcus aureus ATCC 25923 assessed as bacterial content leakage at 5 times MIC incubated for 60 mins by SEM analysis; format: functional, organism-based
Staphylococcus aureus [4] = test: Bactericidal activity against Staphylococcus aureus ATCC 25923 incubated for 16 hrs; format: functional
Staphylococcus aureus [5] = test: Antibacterial activity against methicillin-resistant Staphylococcus aureus ATCC BAA-44 incubated for 16 to 18 hrs by broth microdilution method; format: functional; conditions: time 16-18 hrs
Staphylococcus aureus [6] = test: Induction of cell membrane damage in Staphylococcus aureus ATCC 25923 assessed as membrane blebbing at 5 times MIC incubated for 60 mins by SEM analysis; format: functional, organism-based
Staphylococcus aureus [7] = test: Induction of cell membrane damage in Staphylococcus aureus ATCC 25923 at 1 to 5 times MIC by SYTOX green fluorescence based analysis; format: functional, organism-based
Escherichia coli [8] = test: Induction of cell membrane damage in Escherichia coli ATCC 25922 at 5 times MIC incubated for 60 mins by PI staining based FACS analysis; format: functional, organism-based
Escherichia coli [9] = test: Induction of cell membrane damage in Escherichia coli ATCC 25922 at 1 to 5 times MIC by SYTOX green fluorescence based analysis; format: functional, organism-based
Staphylococcus aureus [10] = test: Induction of cell membrane damage in Staphylococcus aureus ATCC 25923 assessed as membrane distortion at 5 times MIC incubated for 60 mins by SEM analysis; format: functional, organism-based
[11] = Cytotoxicity against mouse 3T3-L1 cells assessed as cell viability upto 60 uM incubated for 4 hrs by MTT assay relative to control; format: toxicity, cell-based; conditions: read-out: Activity
Acinetobacter baumannii = test: Antibacterial activity against Acinetobacter baumanni ATCC 19606 incubated for 16 to 18 hrs by broth microdilution method; format: functional; conditions: time 16-18 hrs
Staphylococcus aureus [12] = test: Induction of cell membrane damage in Staphylococcus aureus ATCC 25923 at 5 times MIC incubated for 60 mins by PI staining based FACS analysis; format: functional, organism-based
Staphylococcus aureus [13] = test: Antibacterial activity against Staphylococcus aureus ATCC 25923 incubated for 16 to 18 hrs by broth microdilution method; format: functional; conditions: time 16-18 hrs
Escherichia coli [14] = test: Antibacterial activity against Escherichia coli ATCC 25922 incubated for 16 to 18 hrs by broth microdilution method; format: functional; conditions: time 16-18 hrs
Escherichia coli [15] = test: Induction of cell membrane damage in Escherichia coli ATCC 25922 assessed as wrinkling on bacterial surface at 5 times MIC incubated for 60 mins by SEM analysis; format: functional, organism-based
Staphylococcus aureus [16] = test: Antibacterial activity against methicillin-resistant Staphylococcus aureus ATCC 33591 incubated for 16 to 18 hrs by broth microdilution method; format: functional; conditions: time 16-18 hrs
Pseudomonas aeruginosa = test: Antibacterial activity against Pseudomonas aeruginosa ATCC BAA-427 incubated for 16 to 18 hrs by broth microdilution method; format: functional; conditions: time 16-18 hrs
[17] = Hemolytic activity against human RBCs upto 100 uM incubated for 45 mins by absorbance based assay; format: toxicity, cell-based, Erythrocyte; conditions: red blood cells (erythrocytes), read-out: Activity
Staphylococcus aureus [18] = test: Bactericidal activity against Staphylococcus aureus VRS1 at 4 times MIC incubated for 24 hrs by time kill assay relative to control; format: functional
Staphylococcus aureus [19] = test: Induction of cell membrane damage in Staphylococcus aureus ATCC 25923 at 5 times MIC incubated for 60 mins by SEM analysis; format: functional, organism-based
Staphylococcus aureus [20] = test: Antibacterial activity against Staphylococcus aureus ATCC 25923 infected in BALB/c mouse assessed as bacterial load in liver at 30 mg/kg, ip measured after 18 hrs (Rvb ~ 1.75 x10^7); format: functional
[21] = Acute toxicity in BALB/c mouse assessed as signs of toxicity at 50 mg/kg, ip measured for 7 days; format: organism-based; conditions: in vivo, 168 h, time 7 day
Staphylococcus aureus [22] = test: Antibacterial activity against Staphylococcus aureus ATCC 25923 infected in BALB/c mouse assessed as bacterial load in spleen at 30 mg/kg, ip measured after 18 hrs (Rvb ~ 1 x10^7); format: functional
Staphylococcus aureus [23] = test: Bactericidal activity against Staphylococcus aureus VRS1 at 4 times MIC incubated for 6 hrs by time kill assay relative to control; format: functional
[24] = Acute toxicity in BALB/c mouse assessed as animal survival at 50 mg/kg, ip measured for 7 days; format: organism-based; conditions: in vivo, 168 h, time 7 day
Erythrocyte = test: Hemolytic activity against human RBCs upto 70 uM incubated for 45 mins by absorbance based assay; format: toxicity, cell-based; conditions: 0.75 h
Staphylococcus aureus [25] = test: Antimicrobial activity against methicillin-resistant Staphylococcus aureus; format: functional, organism-based
Staphylococcus aureus [26] = test: Antimicrobial activity against vancomycin-resistant Staphylococcus aureus; format: functional, organism-based
[27] = Toxicity in BALB/c mouse assessed as animal death at 15 to 30 mg/kg, ip measured for 18 hrs; format: organism-based; conditions: in vivo, dose 15-30 mg/kg
Staphylococcus aureus [28] = test: Bactericidal activity against Staphylococcus aureus VRS1 at 1 to 4 times MIC by time kill assay; format: functional, organism-based; conditions: time <= 24.0 hrs
Staphylococcus aureus [29] = test: Antibacterial activity against Staphylococcus aureus ATCC 25923 infected in BALB/c mouse assessed as bacterial load in blood at 30 mg/kg, ip measured after 18 hrs (Rvb ~ 6 x10^6); format: functional
Staphylococcus aureus [30] = test: Antibacterial activity against Staphylococcus aureus ATCC 25923 infected in BALB/c mouse assessed as bacterial load in lung at 30 mg/kg, ip measured after 18 hrs (Rvb ~ 5 x10^6); format: functional

SMILES	MBC (Escherichia coli [1]) [µM]	Activity (Escherichia coli [2])	Activity (Staphylococcus aureus [3])	MBC (Staphylococcus aureus [4]) [µM]	MIC (Staphylococcus aureus [5]) [µM]	Activity (Staphylococcus aureus [6])	Activity (Staphylococcus aureus [7])	Activity (Escherichia coli [8])	Activity (Escherichia coli [9])	Activity (Staphylococcus aureus [10])	viability at 4 h, up to 60 µM [11] [%]	MIC (Acinetobacter baumannii) [µM]	Activity (Staphylococcus aureus [12])	MIC (Staphylococcus aureus [13]) [µM]	MIC (Escherichia coli [14]) [µM]	Activity (Escherichia coli [15])	MIC (Staphylococcus aureus [16]) [µM]	MIC (Pseudomonas aeruginosa) [µM]	other results
COC(=O)[C@H](Cc1cc2ccc3ccc4ccc5ccc1c1c5c4c3c21)NC(=O)[C@H](N)CCCCN	200 (≈ 95.9 µg/mL)	Active	Active	50 (≈ 24 µg/mL)	25 (≈ 12 µg/mL)	Active	Active	Active	inactive	Active	3	50 (≈ 24 µg/mL)	Active	25 (≈ 12 µg/mL)	100 (≈ 48 µg/mL)	Active	25 (≈ 12 µg/mL)	50 (≈ 24 µg/mL)	
COC(=O)[C@H](CCCc1cc2ccc3ccc4ccc5ccc1c1c5c4c3c21)NC(=O)[C@@H](N)CCCCN	25 (≈ 12.7 µg/mL)	Active	Active	12.5 (≈ 6.35 µg/mL)	12.5 (≈ 6.35 µg/mL)	Active	Active	Active	inactive	Active	41	25 (≈ 12.7 µg/mL)	Active	12.5 (≈ 6.35 µg/mL)	25 (≈ 12.7 µg/mL)	Active	12.5 (≈ 6.35 µg/mL)	25 (≈ 12.7 µg/mL)	
COC(=O)[C@H](Cc1cc2ccc3ccc4ccc5ccc1c1c5c4c3c21)NC(=O)CNC(=O)[C@@H](N)CCCCN	50 (≈ 26.8 µg/mL)			50 (≈ 26.8 µg/mL)	12.5 (≈ 6.71 µg/mL)		Active	Active	inactive		47	100 (≈ 53.7 µg/mL)	Active	12.5 (≈ 6.71 µg/mL)	50 (≈ 26.8 µg/mL)		12.5 (≈ 6.71 µg/mL)	50 (≈ 26.8 µg/mL)	hemolysis at 0.75 h, up to 100 µM [17]: ~3%
COC(=O)[C@H](CCCNC(=N)NS(=O)(=O)c1ccc(C)cc1)NC(=O)[C@@H](N)Cc1cc2ccc3ccc4ccc5ccc1c1c5c4c3c21					> 400			Active				> 400	Active	> 400	> 400		> 400	> 400	
CCCCCCCCCC(=O)N[C@@H](Cc1c[nH]c2ccccc12)C(=O)N[C@H](CC(N)=O)C(=O)N[C@@H](CC(=O)O)C(=O)N[C@@H]1C(=O)NCC(=O)N[C@@H](CCCN)C(=O)N[C@@H](CC(=O)O)C(=O)N[C@H](C)C(=O)N[C@@H](CC(=O)O)C(=O)NCC(=O)N[C@H](CO)C(=O)N[C@@H]([C@H](C)CC(=O)O)C(=O)N[C@@H](CC(=O)c2ccccc2N)C(=O)O[C@@H]1C																			Activity (Staphylococcus aureus [18]): 100%
CC[C@H](C)[C@H](NC(=O)[C@H](CCCNC(=N)N)NC(=O)CNC(=O)[C@H](CC(C)C)NC(=O)[C@H](Cc1ccccc1)NC(=O)[C@H](CCCCN)NC(=O)[C@H](CO)NC(=O)[C@H](Cc1ccccc1)NC(=O)[C@H](Cc1c[nH]c2ccccc12)NC(=O)[C@H](CCC(N)=O)NC(=O)[C@@H](NC(=O)[C@@H](N)Cc1ccccc1)C(C)C)C(=O)N[C@@H](CC(C)C)C(N)=O (H-FVQWFSKFLGRIL-NH2)																			Activity (Staphylococcus aureus [19]): Active
CN(C)[C@@H]1C(O)=C(C(N)=O)C(=O)[C@@]2(O)C(O)=C3C(=O)c4c(O)cccc4[C@@](C)(O)[C@H]3C[C@@H]12 [TETRACYCLINE]	0.78 (≈ 0.347 µg/mL)			0.78 (≈ 0.347 µg/mL)	0.78 (≈ 0.347 µg/mL)							0.39 (≈ 0.173 µg/mL)		0.39 (≈ 0.173 µg/mL)	0.78 (≈ 0.347 µg/mL)		0.78 (≈ 0.347 µg/mL)	1.56 (≈ 0.693 µg/mL)	
O=C(O)c1cn(C2CC2)c2cc(N3CCNCC3)c(F)cc2c1=O [CIPROFLOXACIN]	0.39 (≈ 0.129 µg/mL)			0.39 (≈ 0.129 µg/mL)	0.39 (≈ 0.129 µg/mL)							0.39 (≈ 0.129 µg/mL)		0.39 (≈ 0.129 µg/mL)	0.39 (≈ 0.129 µg/mL)		1.56 (≈ 0.517 µg/mL)	1.56 (≈ 0.517 µg/mL)	
COC(=O)[C@H](CCCc1cc2ccc3ccc4ccc5ccc1c1c5c4c3c21)NC(=O)CNC(=O)[C@@H](N)CCCCN	50 (≈ 28.2 µg/mL)			12.5 (≈ 7.06 µg/mL)	12.5 (≈ 7.06 µg/mL)		Active	Active	inactive		62	50 (≈ 28.2 µg/mL)	Active	12.5 (≈ 7.06 µg/mL)	50 (≈ 28.2 µg/mL)		12.5 (≈ 7.06 µg/mL)	50 (≈ 28.2 µg/mL)	hemolysis at 0.75 h, up to 100 µM [17]: ~5%
COC(=O)[C@H](Cc1cc2ccc3ccc4ccc5ccc1c1c5c4c3c21)NC(=O)[C@@H](N)CCCCN.Cl.Cl	50	Active	Active	50	12.5	Active	Active	Active	inactive	Active	71	200	Active	25	50	Active	25	200	Activity (Staphylococcus aureus [20]): ~1.2 10^6CFU/ml; Activity [21]: Non-Toxic; Activity (Staphylococcus aureus [22]): ~6.5 10^5CFU/ml; Activity (Staphylococcus aureus [23]): 100%; Activity [24]: Non-Toxic; Activity (Erythrocyte): Non-Toxic; Activity (Staphylococcus aureus [25]): Active; Activity (Staphylococcus aureus [26]): Active; Activity [27]: Non-Toxic; Activity (Staphylococcus aureus [28]): Dose-Dependent Effect; Activity (Staphylococcus aureus [29]): ~7 10^4CFU/ml; Activity (Staphylococcus aureus [30]): ~4.5 10^4CFU/ml
